Series [1] can be described thus: Rate of dissolution of rebaudioside A polymorph and amorphous forms in H2O at 25° C. It is filed as physicochemical.
Series [2] is described as follows: Sensory evaluation of sweetness linger by a panel of experts. It is filed as in vivo. Set-up: key: 0=no sweetness linger; 1=very slight sweetness linger; 2 slight sweetness linger; 3 moderate sweetness linger; 4=moderately high sweetness linger; 5 high sweetness linger. How it is done: In a particular embodiment, a panel of assessors is used to measure the reduction of sweetness linger. Briefly described, a panel of assessors (generally 8 to 12 individuals) is trained to evaluate sweetness perception and measure sweetness at several time points from when the sample is initially taken into the mouth until 3 minutes after it has been expectorated. […] A decrease in score for a time point measured after the sample has cleared the mouth indicates there has been a reduction in sweetness perception.
The panel of assessors may be trained using procedures well known to those of ordinary skill in the art. In a particular embodiment, the panel of assessors may be trained using the Spectrum™ Descriptive Analysis Method (Meilgaard et al, Sensory Evaluation Techniques, 3rd edition, Chapter 11). Desirably, the focus of training should be the recognition of and the measure of the basic tastes; specifically, sweet. […]
Sensory evaluation of the samples prepared in Example Set C was carried out under the following protocol, similar to that described hereinabove. […] Immediately upon sensing maximal sweetness, the sample was expectorated, the mouth was rinsed with water and the rate of sweetness decay (“Sweetness Linger”) was measured, where attention was focused on the sweetness 3-4 min after the water rinse. […]

This note sets out measurements from patent publication US8512789B2, “High-potency sweetener composition with dietary fiber and compositions sweetened therewith” (The Coca-Cola Company, priority 2005, dated 2013).

On to rebaudioside A [Form 1], for which, in series [1], the “Rate of dissolution in H2O at 25° C.” value was “(<0.2%/ %/60 minutes” and the “Rate of dissolution in H2O at 25° C. (in words)” value (“Rate of dissolution … (in words)” for short) is given as “Very low”. For the substance rebaudioside A [Form 4], in series [1], the “Rate of dissolution in H2O at 25° C.” value is listed as “(>35%/ %/5 minutes” and the “Rate of dissolution … (in words)” value is “High”. With rebaudioside A, the “Sweetness Linger rating” value is 5 in series [2] (Example Set G: citric acid/potassium citrate composition equivalent to diet lemon-lime beverage, 400 ppm REBA base (sugar control 8 g/100 ml), scale 0-5, sweetness 3-4 min after water rinse) and 5 in series [2] (Example Set H: carbon-treated water with phosphoric acid (75%), pH 2.4-2.5, REBA base (sugar control 10 g/100 ml), scale 0-5).

For rebaudioside A [Form 3], in series [1], the “Rate of dissolution in H2O at 25° C.” value was “(>30%/ %/5 minutes” and the “Rate of dissolution … (in words)” value is reported as “High”. Turning to rebaudioside A [Form 2], the “Rate of dissolution … (in words)” value in series [1] was “Intermediate”.
